Assay results taken from ChEMBL document CHEMBL1145601, “The design and synthesis of diaryl ether second generation HIV-1 non-nucleoside reverse transcriptase inhibitors (NNRTIs) with enhanced potency versus key clinical mutations” (Bioorg Med Chem Lett, 2008).

Legend:
[1] = tested on: Human immunodeficiency virus 1; test: Antiviral activity against HIV1 in human MT4 cells in RPMI1640 media containing fetal bovine serum; assay type: functional; conditions: Human immunodeficiency virus 1, MT4; read-out: CIC95
[2] = target: Human immunodeficiency virus type 1 reverse transcriptase (Human immunodeficiency virus 1, UniProt Q72547, K103N); test: Inhibition of HIV1 reverse transcriptase K103N mutant by SPA assay
[3] = target: Human immunodeficiency virus type 1 reverse transcriptase (Human immunodeficiency virus 1, UniProt Q72547); test: Inhibition of HIV1 reverse transcriptase by SPA assay
[4] = tested on: Human immunodeficiency virus 1; test: Antiviral activity against HIV1 with RT K103N mutation in human MT4 cells in presence of 10% fetal bovine serum; assay type: functional; conditions: Human immunodeficiency virus 1, MT4; read-out: CIC95
[5] = tested on: Human immunodeficiency virus 1; test: Antiviral activity against HIV1 in human MT4 cells in presence of 50% normal human serum; assay type: functional; conditions: Human immunodeficiency virus 1, MT4; read-out: CIC95
[6] = tested on: Human immunodeficiency virus 1; test: Antiviral activity against HIV1 with RT Y181C mutation in human MT4 cells in presence of 10% fetal bovine serum; assay type: functional; conditions: Human immunodeficiency virus 1, MT4; read-out: CIC95
[7] = target: Human immunodeficiency virus type 1 reverse transcriptase (Human immunodeficiency virus 1, UniProt Q72547, Y181C); test: Inhibition of HIV1 reverse transcriptase Y181C mutant by SPA assay
[8] = Half life in Beagle dog at 0.25 mg/kg, iv; assay type: ADME, organism-based, Canis lupus familiaris; parameters: dose 0.25 mg/kg, route intravenous; conditions: in vivo
[9] = tested on: Human immunodeficiency virus 1; test: Antiviral activity against HIV1 with RT G190A mutation in human MT4 cells in presence of 40% normal human serum; assay type: functional, organism-based; conditions: Human immunodeficiency virus 1, MT4
[10] = tested on: Human immunodeficiency virus 1; test: Antiviral activity against HIV1 with RT Y188L mutation in human MT4 cells in presence of 40% normal human serum; assay type: functional, organism-based; conditions: Human immunodeficiency virus 1, MT4
[11] = tested on: Human immunodeficiency virus 1; test: Antiviral activity against HIV1 with RT K103N/Y181C/G190A mutation in human MT4 cells in presence of 40% normal human serum; assay type: functional, organism-based; conditions: Human immunodeficiency virus 1, MT4
[12] = Volume of distribution in Sprague-Dawley rat at 10 mg/kg, po and 2 mg/kg, iv; assay type: ADME, organism-based; conditions: in vivo
[13] = tested on: Human immunodeficiency virus 1; test: Antiviral activity against HIV1 with RT K103N/Y181C mutation in human MT4 cells in presence of 40% normal human serum; assay type: functional, organism-based; conditions: Human immunodeficiency virus 1, MT4
[14] = Clearance in Beagle dog at 0.25 mg/kg, iv; assay type: ADME, organism-based, Canis lupus familiaris; parameters: dose 0.25 mg/kg, route intravenous; conditions: in vivo
[15] = tested on: Human immunodeficiency virus 1; test: Antiviral activity against HIV1 with RT Y181C mutation in human MT4 cells in presence of 40% normal human serum; assay type: functional, organism-based; conditions: Human immunodeficiency virus 1, MT4
[16] = tested on: Human immunodeficiency virus 1; test: Antiviral activity against HIV1 with RT K103N mutation in human MT4 cells in presence of 40% normal human serum; assay type: functional, organism-based; conditions: Human immunodeficiency virus 1, MT4
[17] = Oral bioavailability in Sprague-Dawley rat at 10 mg/kg, po and 2 mg/kg, iv; assay type: ADME, organism-based; conditions: in vivo
[18] = AUC in rhesus monkey at 1 mg/kg, iv; assay type: ADME, organism-based, Macaca mulatta; parameters: dose 1 mg/kg, route intravenous; conditions: plasma
[19] = Half life in Sprague-Dawley rat at 2 mg/kg, iv; assay type: ADME, organism-based; parameters: dose 2 mg/kg, route intravenous; conditions: in vivo
[20] = Volume of distribution in Beagle dog at 0.25 mg/kg, iv; assay type: ADME, organism-based, Canis lupus familiaris; parameters: dose 0.25 mg/kg, route intravenous; conditions: in vivo
[21] = Half life in rhesus monkey at 1 mg/kg, iv; assay type: ADME, organism-based, Macaca mulatta; parameters: dose 1 mg/kg, route intravenous; conditions: in vivo
[22] = Volume of distribution in rhesus monkey at 1 mg/kg, iv; assay type: ADME, organism-based, Macaca mulatta; parameters: dose 1 mg/kg, route intravenous; conditions: in vivo
[23] = tested on: Human immunodeficiency virus 1; test: Antiviral activity against HIV1 with RT K103N/V179E mutation in human MT4 cells in presence of 40% normal human serum; assay type: functional, organism-based; conditions: Human immunodeficiency virus 1, MT4
[24] = tested on: Human immunodeficiency virus 1; test: Antiviral activity against HIV1 in human MT4 cells in presence of 40% normal human serum; assay type: functional, organism-based; conditions: Human immunodeficiency virus 1, MT4
[25] = AUC in Beagle dog at 0.25 mg/kg, iv; assay type: ADME, organism-based, Canis lupus familiaris; parameters: dose 0.25 mg/kg, route intravenous; conditions: plasma
[26] = Clearance in rhesus monkey at 1 mg/kg, iv; assay type: ADME, organism-based, Macaca mulatta; parameters: dose 1 mg/kg, route intravenous; conditions: in vivo
[27] = AUC in Sprague-Dawley rat at 10 mg/kg, po and 2 mg/kg, iv; assay type: ADME, organism-based; conditions: plasma
[28] = Clearance in Sprague-Dawley rat at 2 mg/kg, iv; assay type: ADME, organism-based; parameters: dose 2 mg/kg, route intravenous; conditions: in vivo
[29] = tested on: Human immunodeficiency virus 1; test: Antiviral activity against HIV1 with RT K101E/G190A mutation in human MT4 cells in presence of 40% normal human serum; assay type: functional, organism-based; conditions: Human immunodeficiency virus 1, MT4
[30] = tested on: Human immunodeficiency virus 1; test: Antiviral activity against HIV1 with RT Y181C/G190A mutation in human MT4 cells in presence of 40% normal human serum; assay type: functional, organism-based; conditions: Human immunodeficiency virus 1, MT4
[31] = tested on: Human immunodeficiency virus 1; test: Antiviral activity against HIV1 with RT L100I mutation in human MT4 cells in presence of 40% normal human serum; assay type: functional, organism-based; conditions: Human immunodeficiency virus 1, MT4
[32] = tested on: Human immunodeficiency virus 1; test: Antiviral activity against HIV1 with RT K103N/G190A mutation in human MT4 cells in presence of 40% normal human serum; assay type: functional, organism-based; conditions: Human immunodeficiency virus 1, MT4
[33] = tested on: Human immunodeficiency virus 1; test: Antiviral activity against HIV1 with RT K103N/P225H mutation in human MT4 cells in presence of 40% normal human serum; assay type: functional, organism-based; conditions: Human immunodeficiency virus 1, MT4
[34] = tested on: Human immunodeficiency virus 1; test: Antiviral activity against HIV1 with RT G190S mutation in human MT4 cells in presence of 40% normal human serum; assay type: functional, organism-based; conditions: Human immunodeficiency virus 1, MT4

CS(=O)(=O)c1ccc2c(c1)CCN2C(=O)COc1ccc(Cl)c(Oc2cc(Cl)cc(C#N)c2)c1
IC95 [1]: 3.68 nM
IC50 [2]: 0.33 nM
IC50 [3]: 0.86 nM
IC95 [4]: 5.26 nM
IC95 [5]: 29.7 nM
IC95 [6]: 14.3 nM
IC50 [7]: 1.7 nM

N#Cc1cc(Cl)cc(Oc2cc(OCc3n[nH]c4ccccc34)ccc2Cl)c1
half-life [8]: 1.5 h
IC50 [9]: 9.4 nM
IC50 [10]: > 1000 nM
IC50 [11]: 171 nM
IC95 [1]: 22.6 nM
Vd [12]: 2.9 L/kg
IC50 [13]: 141 nM
IC50 [2]: 1.12 nM
clearance [14]: 28.9 mL/min/kg
IC50 [15]: 13.8 nM
IC50 [16]: 7.9 nM
bioavailability [17]: 3.3%
IC95 [4]: 33.4 nM
IC95 [5]: 114 nM
AUC [18]: 1.7 µM·h
half-life [19]: 4.7 h
Vd [20]: 1.2 L/kg
IC95 [6]: 102 nM
half-life [21]: 8.1 h
Vd [22]: 7.1 L/kg
IC50 [23]: 20.3 nM
IC50 [24]: 4.7 nM
AUC [25]: 0.4 µM·h
clearance [26]: 24 mL/min/kg
AUC [27]: 6.2 µM·h
clearance [28]: 13.6 mL/min/kg
IC50 [29]: 21 nM
IC50 [30]: 35.8 nM
IC50 [31]: 2.6 nM
IC50 [7]: 2.62 nM
IC50 [32]: 21.7 nM
IC50 [33]: 29.3 nM
IC50 [34]: 23.4 nM

N#Cc1cc(Cl)cc(Oc2cc(OCc3nc4ccccc4s3)ccc2Cl)c1
IC95 [1]: 312 nM
IC50 [2]: 79.2 nM
IC50 [3]: 19.3 nM
IC95 [5]: 1250 nM
IC50 [7]: 54.9 nM

N#Cc1cc(Cl)cc(Oc2cc(OCc3nc4cccc(Cl)c4[nH]3)ccc2Cl)c1
IC95 [1]: 103 nM
IC50 [2]: 7.3 nM
IC50 [3]: 3.2 nM
IC95 [5]: 2780 nM
IC50 [7]: 50 nM

N#Cc1cc(Cl)cc(Oc2cc(OCc3nc4cccc(Cl)c4o3)ccc2Cl)c1
IC95 [1]: 78 nM
IC50 [2]: 1.41 nM
IC50 [3]: 0.59 nM
IC95 [5]: 312 nM
IC50 [7]: 6.38 nM

N#Cc1cc(Cl)cc(Oc2cc(OCc3nc4cccc(Cl)c4s3)ccc2Cl)c1
IC95 [1]: 156 nM
IC50 [2]: 5.98 nM
IC50 [3]: 3.06 nM
IC95 [5]: 1250 nM
IC50 [7]: 5.15 nM

N#Cc1cc(Cl)cc(Oc2cc(Cl)cc(OCC(=O)Nc3ccc(S(N)(=O)=O)cc3Cl)c2)c1
IC95 [1]: 16 nM
IC50 [2]: 3.48 nM
IC95 [5]: 125 nM
IC50 [7]: 2.66 nM

NS(=O)(=O)c1ccc(NC(=O)COc2cc(Cl)cc(Oc3ccccc3)c2)c(Cl)c1
IC50 [2]: 218 nM
IC50 [3]: 10.5 nM
IC50 [7]: 25 nM

NS(=O)(=O)c1ccc(NC(=O)COc2cccc(Oc3ccccc3)c2)c(Cl)c1
IC50 [2]: 192 nM
IC50 [3]: 51.7 nM
IC50 [7]: 722 nM

N#Cc1cc(Cl)cc(Oc2cc(OCC(=O)Nc3ccc(S(N)(=O)=O)cc3Cl)ccc2Cl)c1
IC95 [1]: 7.56 nM
IC50 [2]: 0.21 nM
IC50 [3]: 0.14 nM
IC95 [4]: 9.52 nM
IC95 [5]: 23.9 nM
IC95 [6]: 14.8 nM
IC50 [7]: 0.28 nM

Cc1cc(S(N)(=O)=O)ccc1NC(=O)COc1ccc(Cl)cc1C(=O)c1cc(Cl)cc(C#N)c1
IC95 [1]: 2.65 nM
IC50 [2]: 3.16 nM
IC50 [3]: 2.16 nM
IC95 [4]: 6.98 nM
IC95 [5]: 30.5 nM
IC95 [6]: 3.28 nM
IC50 [7]: 2.48 nM

Cc1cc(C)c(-n2nnnc2SCC(=O)Nc2ccc(S(N)(=O)=O)cc2Cl)c(C)c1
IC95 [1]: 16 nM
IC50 [2]: 10.4 nM
IC50 [3]: 4.05 nM
IC95 [5]: 62 nM
IC50 [7]: 34.5 nM

N#Cc1cccc(Oc2cc(Cl)cc(OCC(=O)Nc3ccc(S(N)(=O)=O)cc3Cl)c2)c1
IC95 [1]: 8 nM
IC50 [2]: 14.4 nM
IC50 [3]: 0.96 nM
IC95 [5]: 160 nM
IC50 [7]: 1.2 nM

CS(=O)(=O)c1ccc(NC(=O)COc2ccc(Cl)c(Oc3cc(Cl)cc(C#N)c3)c2)c(Cl)c1
IC95 [1]: 31 nM
IC50 [2]: 1.33 nM
IC50 [3]: 0.99 nM
IC95 [5]: 78 nM
IC50 [7]: 0.91 nM
